Test results published in patent US7317107B2, “Imidazole 4-carboxamide compounds with adenosine deaminase inhibiting activity” (Astellas Pharma Inc., priority 2002, dated 2008).
Counter-ions that a name gives are not always drawn.

Molecular target: T1, Human ADA (Homo sapiens, UniProt P00813)
T1 construct: made in house
T1 sequence (P00813 1-363): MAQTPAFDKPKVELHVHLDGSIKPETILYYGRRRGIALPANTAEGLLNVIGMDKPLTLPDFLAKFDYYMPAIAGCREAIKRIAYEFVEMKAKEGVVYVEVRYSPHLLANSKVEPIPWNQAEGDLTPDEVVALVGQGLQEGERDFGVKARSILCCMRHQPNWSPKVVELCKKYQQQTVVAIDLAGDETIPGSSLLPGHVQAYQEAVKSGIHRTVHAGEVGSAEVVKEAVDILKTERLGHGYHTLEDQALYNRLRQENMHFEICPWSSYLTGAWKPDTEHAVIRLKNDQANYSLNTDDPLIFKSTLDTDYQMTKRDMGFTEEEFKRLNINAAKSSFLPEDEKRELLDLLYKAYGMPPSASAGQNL
Assay: Adenosine Deaminase (ADA) Enzyme Assay
Format: biochemical
Details: 0.16 μg/ml ADA, 0.1 mM adenosine, 10 mM phosphate buffer saline pH 7.4, room temperature, decrease in A265 for 3 minutes
Description: Adenosine Deaminase (ADA) Enzyme Assay
• 1-{(3R,4S)-4-Hydroxy-1-[2-(4-ethoxyphenyl)-4-benzoxazolyl]-3-pentyl}-imidazole-4-carboxamide hydrochloride (E0023) • 1-{(3R,4S)-4-Hydroxy-1-[2-(2-thienyl)-7-benzoxazolyl]-3-pentyl}-imidazole-4-carboxamide hydrochloride (E0028) Test Method:
The reaction velocity (V) is measured by a change in absorbance at 265 nm (A265) resulting from the deamination of adenosine. Human ADA was expressed and purified from ADA-deficient bacterial strain. Reaction mixtures of a total volume of 200 μl contained 0.16 μg/ml of ADA and 0.1 mM of adenosine and test compound in 10 mM phosphate buffer saline (pH 7.4). The reaction was started by addition of ADA to a mixture of adenosine and test compound. The reaction was followed at room temperature by recording decrease in A265 for 3 minutes in SPECTRAmax 250 (Molecular Devices, USA) to automatically calculate Vmax. Inhibitory potency of test compound was expressed as IC50 value, the drug concentration required to produce 50% inhibition of Vmax in comparison to vehicle treatment.

| IC50 [µM] | SMILES |
| --- | --- |
| < 0.02 | CCOc1ccc(-c2nc3c(CC[C@H]([C@H](C)O)n4cnc(C(N)=O)c4)cccc3o2)cc1 [Compound E0023, 1-{(3R,4S)-4-Hydroxy-1-[2-(4-ethoxyphenyl)-4-benzoxazolyl]-3-pentyl}imidazole-4-carboxamide hydrochloride] |
| < 0.02 | C[C@H](O)[C@@H](CCc1cccc2nc(-c3cccs3)oc12)n1cnc(C(N)=O)c1 [Compound E0028, 1-{(3R,4S)-4-Hydroxy-1-[2-(2-thienyl)-7-benzoxazolyl]-3-pentyl}imidazole-4-carboxamide hydrochloride] |
